Values joined by “and” are separate entries in the source; they are usually repeats but may differ in a detail not shown here. Equal values may be shown once. Read-outs that look alike come from different tables or passages of the source.
Legend:
[1] = system: PSMA-positive metastatic castration-resistant prostate cancer; settings: cited from earlier work
[2] = system: PSMA-positive mCRPC participants; assay: PSMAfore phase III: patient disposition, treatment discontinuation; format: in vivo, human
Source text: Patient disposition (Full analysis set)

[3] = system: PSMA-positive metastatic castration-resistant prostate cancer (mCRPC); assay: PSMAfore phase III: radiographic progression-free survival (rPFS) by blinded independent central review per PCWG3; format: in vivo, human
[4] = system: PSMA-positive metastatic castration-resistant prostate cancer; settings: cited from earlier work; remark: listed apart in the source
[5] = system: PSMA-positive metastatic castration-resistant prostate cancer (mCRPC); assay: PSMAfore phase III: radiographic progression-free survival (rPFS) by blinded independent central review per PCWG3; format: in vivo, human; remark: listed apart in the source
Protocol: Radiographic progression-free survival (rPFS) based on independent central review as per PCWG3 criteria is the primary endpoint and overall survival (OS) is the key secondary endpoint for the study. The statistical design of the study is such that, to be declared positive, the study would be required to reach statistical significance on the primary analysis of rPFS.
The primary analysis of rPFS and the first interim analysis of OS were performed using all patients randomized on or before the data cutoff date of 2 Oct. 2022 using a one-sided alpha level of 2.5%. One randomized and treated patient was excluded from Full Analysis Set due to informed consent not obtained per due process (INCL1A PD).

[6] = system: castrate-resistant metastatic prostate cancer; settings: cited from earlier work
mCRPC participants = settings: cited from earlier work
[7] = system: PSMA-positive metastatic castration-resistant prostate cancer (mCRPC); assay: PSMAfore phase III: overall survival (OS), interim analysis; format: in vivo, human; settings: first interim analysis DCO 2 Oct 2022
Protocol: After radiographic progression, follow up for survival will continue.
OS is hierarchically tested based on a three-look group sequential design using a Lan DeMets (O'Brien Flemming) alpha spending function. The final OS analysis was not planned to be performed at the time of the interim rPFS analysis, which is reported in this FIR.
Following the hierarchical testing strategy defined in the study protocol, OS was tested once rPFS was statistically significant. The one-sided alpha level (<0.000000001012) required for a significant OS difference in this first interim analysis was calculated from the pre-specified alpha spending function and the number of events observed at the time of rPFS analysis.
Results in terms of the OS at the time of the first interim OS analysis are based on 13.5% (40/297 deaths).
The second interim analysis for OS is planned after additional follow up when approximately 75% (223/297) of the targeted number of deaths/events have occurred. If OS is not statistically significant at the second interim analysis, a final analysis is planned when approximately 297 deaths have been recorded.

[8] = system: metastatic castration-resistant prostate cancer; settings: cited from earlier work
[9] = system: docetaxel progressing metastatic castration-resistant prostate cancer; settings: randomized, 200 patients; P<0.0001; cited from earlier work
[10] = DCO 2 Oct 2022, full analysis set
[11] = DCO 21 Jun 2023, full analysis set
[12] = primary analysis DCO 2 Oct 2022, most recent central vendor data (results update)

## O=C([O-])CN1CCN(CC(=O)[O-])CCN(CC(=O)NCC2CCC(C(=O)N[C@@H](Cc3ccc4ccccc4c3)C(=O)NCCCC[C@H](NC(=O)N[C@@H](CCC(=O)O)C(=O)O)C(=O)O)CC2)CCN(CC(=O)[O-])CC1.[177Lu+3] (stereo partly shown) [[177Lu]Lu-PSMA-617, lutetium (177Lu) vipivotide tetraxetan]
[1]; RECIST 1.1 measurable target lesions, 17 of 184 patients
  complete response: 9.2%
[1]; RECIST 1.1 measurable target lesions, 77 patients
  partial response: 41.8%
[1]; plus standard care, vs 3.4 months standard care
  median imaging-based progression-free survival: 8.7 months
[1]; plus standard care, vs 11.3 months standard care
  median overall survival: 15.3 months
[1]; vs standard care, 95% CI 0.52 to 0.74
  hazard ratio for death: 0.62
[1]; vs standard care, 99.2% CI 0.29 to 0.57
  hazard ratio for progression or death: 0.40
[2]; DCO 2 Oct 2022
  treatment discontinuation due to adverse event: 3.9%
[2]; [10]
  Reason for discontinuation: Adverse event: 9 (3.9) n (%)
[2]; DCO 21 Jun 2023
  treatment discontinuation due to adverse event: 5.6%
[3]; [11]
  rPFS events: Death without radiographic progression: 10 (4.3) n(%)
  rPFS events: Radiographic progression: 105 (44.9) n(%)
  rPFS: Number of events: 115 (49.1%) n(%) and 115 (49.1) n(%)
[3]; updated exploratory analysis DCO 21 Jun 2023
  risk reduction (rPFS) compared to ARDT arm: 57%
[4]; VISION
  TEAE anemia: 31.8%
  TEAE arthralgia: 22.3%
  TEAE back pain: 23.4%
  TEAE constipation: 20.2%
  TEAE decreased appetite: 21.2%
  TEAE diarrhea: 18.9%
  TEAE dry mouth: 38.8%
  TEAE fatigue: 43.1%
  TEAE leukopenia: 12.5%
  TEAE lymphopenia: 14.2%
  TEAE nausea: 35.3%
  TEAE thrombocytopenia: 17.2%
  TEAE vomiting: 18.9%
[4]; as of 27 Jan 2021, 519 patients
  patients reporting treatment-emergent adverse events (TEAEs): 98.1%
[4]; as of 27 Jan 2021
  incidence of adverse events of grade 3 or above: 52.7%
[5]; [10]
  rPFS events: Death without radiographic progression: 6 (2.6) n(%)
  rPFS events: Radiographic progression: 55 (23.6) n(%)
  rPFS: Number of events: 61 (26.2%) n(%) and 61 (26.2) n(%)
  risk reduction (rPFS) compared to ARDT arm: 58%
[5]; DCO 2 Oct 2022, full analysis set, Kaplan-Meier
  rPFS 75th percentile (95% CI): NE [11.96, NE]
[5]; [12]
  estimated rPFS probability (95% CI) at 6 months: 69.0%
  rPFS: Number of events: 60 (25.8%) n (%)
[6]; 10 participants, 5.6 GBq/150 mCi
  participants with PSA decline >50%: 50%
[6]; after 2 cycles of 6 GBq/160 mCi
  participants with PSA decline >50%: 60%
mCRPC participants; literature
  Grade 3/4 nephrotoxicity: no reports of Grade 3/4 nephrotoxicity
mCRPC participants; prospective study, low grade
  rate of xerostomia in treated participants: approximately 87%
[7]; Kaplan-Meier
  median OS (95% CI): NE [12.16, NE]
[7]; full analysis set
  OS: Number of events: 20 (8.6) n(%)
[8]; 27 participants with measurable disease
  objective response rate in measurable disease by RECIST (CR and PR): 56%
[8]; 95% CI 10.5-18.0
  median overall survival: 13.3 months
[8]; up to 4 cycles of 4-8 GBq every 6 weeks
  participants with reduction of PSA of 80% or more: 44%
[8]; up to 4 cycles of 4-8 GBq every 6 weeks, post-taxane, post abiraterone/enzalutamide
  participants with PSA response (reduction in PSA of at least 50%): 64%
[9]
  proportion of patients with PSA decline >=50%: 66%
